Data taken from patent US20180010132A1, “INHIBITION OF PRMT5 TO TREAT MTAP-DEFICIENCY-RELATED DISEASES” (NOVARTIS AG, priority 2014, published 2018).

Experiments:
PRMT5/MEP50 complex = PRMT5/MEP50 complex (Homo sapiens, UniProt O14744); experiment: LC/MS based biochemical histone methyltransferase assay
Protocol: Top: Schematic representation of multi-allele dual-selection assay with P2A or STOP insertion cassettes and crystal violet staining of cells. […] Profiling of the inhibitory activity (IC50) of adenosine and MTA across a panel of histone methyltransferases (HMTs) in an LC/MS based biochemical assay. MTA and adenosine display single digit μM activity against the PRMT5/MEP50 complex (red) but have no activity (IC50>100 μM) across all other HMTs tested. […] MIAPaCa2 cells stably expressing inducible shPRMT5-2 were transduced with pRetro empty vector control or with MTAP cDNA and proliferation assessed by confluence measurements using Incucyte. […] FIGS. 3 K and L show in vitro proliferation assay of PK1 MTAP isogenic cell lines generated from a non-targeting control sgRNA FIG. 3 K, PK1 CTRL; or with a sgRNA targeting MTAP 1, PK1 MTAP KO and stably expressing Dox-inducible PRMT5 (shPRMT5-2) with and without treatment with doxycycline (+/−Dox) over time (hours) as assessed by incucyte (n=24 per treatment condition). […] FIGS. 3 M and N show focus formation of PK1 (FIG. 3M), wild type (WT) and (FIG. 3N), MTAP knockout (MTAP KO) cells treated with DMSO or MTA at concentrations as indicated.

PRMT5 = PRMT5 (Homo sapiens, UniProt O14744); conditions: methylating the substrate E2-F-1; cited from earlier work
Chain of PRMT5 (O14744 whole entry): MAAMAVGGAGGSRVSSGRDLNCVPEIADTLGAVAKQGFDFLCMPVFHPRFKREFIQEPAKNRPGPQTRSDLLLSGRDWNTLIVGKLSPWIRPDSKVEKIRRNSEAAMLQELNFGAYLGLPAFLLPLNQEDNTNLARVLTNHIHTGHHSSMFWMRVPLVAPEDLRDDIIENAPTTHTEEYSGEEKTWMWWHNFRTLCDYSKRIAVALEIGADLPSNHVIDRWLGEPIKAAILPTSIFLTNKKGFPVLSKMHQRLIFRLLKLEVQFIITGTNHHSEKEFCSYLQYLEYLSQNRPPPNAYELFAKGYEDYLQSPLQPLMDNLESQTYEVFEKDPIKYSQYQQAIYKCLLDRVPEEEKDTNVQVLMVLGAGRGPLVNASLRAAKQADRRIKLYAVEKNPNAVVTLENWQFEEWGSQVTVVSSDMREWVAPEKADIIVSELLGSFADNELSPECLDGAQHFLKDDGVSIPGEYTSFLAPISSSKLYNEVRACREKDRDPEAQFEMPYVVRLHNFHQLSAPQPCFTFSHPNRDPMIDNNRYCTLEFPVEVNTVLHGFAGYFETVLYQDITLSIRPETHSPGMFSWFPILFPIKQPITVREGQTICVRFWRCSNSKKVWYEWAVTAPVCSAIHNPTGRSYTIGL
Chain of PRMT5 (Q9BQA1 whole entry partner): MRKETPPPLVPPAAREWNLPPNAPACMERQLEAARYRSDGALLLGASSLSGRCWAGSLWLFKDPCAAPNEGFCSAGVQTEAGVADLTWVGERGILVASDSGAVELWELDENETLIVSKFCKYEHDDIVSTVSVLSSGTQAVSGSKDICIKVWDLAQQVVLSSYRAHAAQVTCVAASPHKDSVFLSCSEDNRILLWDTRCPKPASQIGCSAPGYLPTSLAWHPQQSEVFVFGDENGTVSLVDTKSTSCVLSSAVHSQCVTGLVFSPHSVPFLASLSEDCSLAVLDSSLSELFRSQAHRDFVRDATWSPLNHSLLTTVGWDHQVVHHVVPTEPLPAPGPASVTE

Chain of PRMT5/MEP50 complex (O14744 whole entry): as the sequence (O14744 whole entry) above
Chain of PRMT5/MEP50 complex (Q9BQA1 whole entry partner): as the sequence (Q9BQA1 whole entry partner) above

For `CSC[C@H]1O[C@@H](n2cnc3c(N)ncnc32)[C@H](O)[C@@H]1O` [MTA, methyl-thioadenosine], the “inhibitory activity (IC50)” value (PRMT5/MEP50 complex) was “single digit”.
For `Nc1ncnc2c1ncn2[C@@H]1O[C@H](CO)[C@@H](O)[C@H]1O` [adenosine], the “inhibitory activity (IC50)” value (PRMT5/MEP50 complex) was “single digit”.
For `Nc1ncnc2c1ncn2[C@@H]1O[C@H](C[C@@H](N)CC[C@H](N)C(=O)O)C(O)C1O` (stereo in doubt) [Sinefungin, 5′-Deoxy-5′-(1,4-diamino-4-carboxybutyl)adenosine], the PRMT5 activity (PRMT5) is listed as “inhibits”.
